Source: ChEMBL document CHEMBL3882736, “Modulation microtubules diseases; antiproliferative agents; antiinflamamtory agents” (2011)

Tests used:
[1] = Cytotoxicity against human PC3 cells assessed as growth inhibition at 20 uM after 40 hrs by MTT assay relative to control; assay type: functional; details: PC-3, 40 h, read-out: GI
In short: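 Human tumour cells in late log phase were grown in their own media containing 10% FBS and dispensed at 90 µL per well (1.1× final, 50000 to 200,000 cell/mL) onto 10 µL of compound (10× final) in 96-well plates, taken from screening plates prepared at 20 µM. After 40 hr at 37° C. in 5% CO2, MTT was added for 6 hours, the cells were lysed overnight with SDS/HCl, and plates were read at 590 nm. Growth inhibition is expressed relative to control.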

Tubulin (Homo sapiens) = Tubulin (Homo sapiens) (UniProt P68371+Q9H4B7+P0DPH7+P68366+Q13509+Q71U36+P04350+Q3ZCM7+P07437+P68363+Q9BQE3+Q6PEY2+Q13885+Q9BVA1+Q9BUF5); assay: Inhibition of tubulin (unknown origin) polymerization at 50 uM by turbidometric method relative to control; assay type: protein-complex assay
In short: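 Microtubule protein of unstated origin was incubated with compound at 0° C. Polymerisation was started with 1 mM GTP and heating to 37° C. in cuvettes, and absorbance at 340 nm was followed over time in a thermostatically controlled spectrophotometer. Inhibition of polymerisation is expressed as percent relative to control.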

Compound	inhibition (Tubulin (Homo sapiens))	inhibition of growth at 20 µM [1]
CCCC(Nc1cncc(-c2ccc(CNC(=O)C3CCC(=O)N3)cc2)n1)c1ccccc1 (configuration not stated)	–	< 50%
CCCC(Nc1cncc(-c2ccc(NC(=O)c3cccnc3)c(OC)c2)n1)c1cccnc1 (configuration not stated)	–	< 50%
CCCC(Nc1cncc(-c2ccc(CN3CCOCC3)cc2)n1)c1ccccc1 (configuration not stated)	–	< 50%
CCCC(Nc1cncc(-c2ccc(NC(=O)NCCCN(CC)CC)c(OC)c2)n1)c1cccnc1 (configuration not stated)	–	< 50%
CCCC(Nc1cncc(-c2ccc(OCCCN3CCCC3)c(OC)c2)n1)c1cccnc1 (configuration not stated)	–	< 50%
CCC[C@H](Nc1cncc(-c2ccc(NC(=O)CN(C)C)c(OC)c2)n1)c1cccnc1	–	> 50%
COc1cc(-c2nc(N[C@H](C)c3ccccc3)nnc2C)ccc1O	–	< 50%
CCCC(Nc1cncc(-c2ccc(OCCCN3CCOCC3)c(OC)c2)n1)c1cccnc1 (configuration not stated)	–	< 50%
CCCC(Nc1cncc(-c2ccc(OCCCCN3CCOCC3)c(OC)c2)n1)c1ccccc1 (configuration not stated)	–	< 50%
CCCC(Nc1cncc(-c2ccc(CN(C)C)cc2)n1)c1ccccc1 (configuration not stated)	–	< 50%
CCCC(Nc1cncc(-c2ccc(CN3CCC[C@H]3CO)cc2)n1)c1ccccc1 (some centres not stated)	–	< 50%
CCCC(Nc1nnc(C)c(-c2cc(OC)c(OC)c(OC)c2)n1)c1ccccc1 (configuration not stated)	–	< 50%
CCCC(Nc1cncc(-c2ccc(C(=O)NCCCCCN)c(C)c2)n1)c1cccnc1 (configuration not stated)	–	< 50%
CCCC(Nc1cncc(-c2ccc(CN3CCN(C)CC3)cc2)n1)c1ccccc1 (configuration not stated)	–	< 50%
CCCC(Nc1cncc(-c2ccc(OCCN(CC)CC)c(OC)c2)n1)c1cncc(C)c1 (configuration not stated)	–	< 50%
CCCC(Nc1cncc(-c2cc(OC)c(OC)c(OC)c2)c1)c1ccccc1 (configuration not stated)	–	> 50%

Compound	inhibition (Tubulin (Homo sapiens))	inhibition of growth at 20 µM [1]
CCCC(Nc1cncc(-c2ccc(C(=O)NCCCN(CC)CC)cc2)n1)c1ccccc1 (configuration not stated)	–	< 50%
CCCC(Nc1cncc(-c2ccc(NC(=O)C3CCNCC3)c(OC)c2)n1)c1cccnc1 (configuration not stated)	–	< 50%
CCCC(Nc1cncc(-c2ccc(CN3CCC(O)CC3)cc2)n1)c1ccccc1 (configuration not stated)	–	< 50%
CCCC(Nc1cncc(-c2ccc(C(=O)NCCCN3CCOCC3)cc2)n1)c1ccccc1 (configuration not stated)	–	< 50%
CCCC(Nc1cncc(-c2ccc(NC(=O)NCC)cc2)n1)c1cccnc1 (configuration not stated)	–	< 50%
CCCC(Nc1cncc(-c2ccc(NC(=O)N3CCN(C)CC3)c(OC)c2)n1)c1cccnc1 (configuration not stated)	–	> 50%
COc1cc(-c2ncc(C)c(NC(CCO)c3ccccc3)n2)ccc1O (configuration not stated)	–	< 50%
CCCC(Nc1cncc(-c2ccc(CN3CCCCC3)cc2)n1)c1ccccc1 (configuration not stated)	–	< 50%
CCCC(Nc1cncc(-c2ccc(CO)c(OC)c2)n1)c1cccnc1 (configuration not stated)	–	< 50%
CCCC(Nc1cncc(-c2ccc(C(=O)N3CCOCC3)cc2)n1)c1ccccc1 (configuration not stated)	–	< 50%
COc1cc(-c2nc(N[C@H](C)c3ccccc3)nnc2C)cc(OC)c1OC	–	< 50%
CCCC(Nc1cncc(-c2ccc(OCCCN3CCN(C)CC3)c(OC)c2)n1)c1cccnc1 (configuration not stated)	–	< 50%
CCCC(Nc1cncc(-c2ccc(C(=O)N3CCN(C)CC3)cc2)n1)c1ccccc1 (configuration not stated)	–	< 50%
CCCC(Nc1cncc(-c2ccc(C(=O)NCCN(C)C)cc2)n1)c1ccccc1 (configuration not stated)	–	< 50%
CCNC(=O)Nc1ccc(-c2cncc(NC(C)c3cccnc3)n2)cc1OC (configuration not stated)	–	< 50%
CCCC(Nc1cncc(-c2ccc(OCCCN3CCOCC3)c(OC)c2)n1)c1ccccc1 (configuration not stated)	–	> 50%

Continued, in another order:

inhibition (Tubulin (Homo sapiens))	Compound	inhibition of growth at 20 µM [1]
> 50%	CCC[C@H](Nc1nc(-c2ccc(NC(=O)NCC)c(OC)c2)ncc1C)c1cccnc1 [LEXIBULIN]	> 50%
> 50%	CCCC(Nc1cncc(-c2ccc(OCCCn3ccnc3)c(OC)c2)n1)c1ccccc1 (configuration not stated)	> 50%
> 50%	CCCC(Nc1cncc(-c2ccc(OCCCN(CC)CC)c(OC)c2)n1)c1ccccc1 (configuration not stated)	> 50%
> 50%	CCNC(=O)Nc1ccc(-c2cncc(N[C@@H](COCC)c3ccccc3)n2)cc1OC	> 50%
> 50%	CCNC(=O)Nc1ccc(-c2cncc(N[C@@H](COC)c3ccccc3)n2)cc1OC	> 50%
> 50%	COc1cc(-c2cncc(NC(C)c3cccc(NC(=O)[C@H]4CCCN4)c3)n2)ccc1O (some centres not stated)	–
> 50%	CCC[C@H](Nc1ccnc(-c2ccc(NC(=O)NCC)c(OC)c2)n1)c1cccnc1	> 50%
> 50%	CCC[C@H](Nc1nc(-c2ccc(O)c(OC)c2)ncc1C)c1cccnc1	> 50%
> 50%	CCCC(Nc1cncc(-c2ccc(OCCCO)c(OC)c2)n1)c1ccccc1 (configuration not stated)	> 50%
> 50%	CCCC(Nc1cncc(-c2cc(C)c(O)c(C)c2)c1)c1ccccc1 (configuration not stated)	> 50%
> 50%	CCCC(Nc1cncc(-c2ccc(CN)cc2)n1)c1ccccc1 (configuration not stated)	> 50%
> 50%	CCCC(Nc1cncc(-c2ccc(OCCCCN3CCN(C)CC3)c(OC)c2)n1)c1ccccc1 (configuration not stated)	> 50%
> 50%	CCCC(Nc1nc(-c2ccc(NC(=O)NCC)c(OC)c2)cnc1C)c1ccccc1 (configuration not stated)	> 50%
> 50%	CCCC(Nc1cncc(-c2ccc(OCCCCN(CC)CC)c(OC)c2)n1)c1ccccc1 (configuration not stated)	> 50%
> 50%	CC[C@H](Nc1cncc(-c2ccc(O)c(OC)c2)n1)c1ccccc1	–
> 50%	CCCC(Nc1cncc(-c2ccc(NC(=O)NCC)c(OC)c2)n1)c1cncc(C)c1 (configuration not stated)	> 50%
> 50%	CCC[C@H](Nc1cncc(-c2ccc(NC(=O)NCC)c(OC)c2)n1)c1cccnc1	> 50%
> 50%	CCCC(Nc1cncc(-c2ccc(NC(=O)NCC)c(CC)c2)n1)c1cccnc1 (configuration not stated)	> 50%

inhibition (Tubulin (Homo sapiens))	Compound	inhibition of growth at 20 µM [1]
> 50%	CCCC(Nc1cncc(-c2ccc(NC(=O)NCC)c(OC)c2)n1)c1cnccc1C (configuration not stated)	> 50%
> 50%	CCCC(Nc1cncc(-c2ccc(CNC(=O)C3CCCNC3)cc2)n1)c1ccccc1 (configuration not stated)	> 50%
> 50%	CCCC(Nc1cncc(-c2ccc(OCCCN3CCN(C)CC3)c(OC)c2)n1)c1ccccc1 (configuration not stated)	> 50%
> 50%	CCCC(Nc1cncc(-c2ccc(NC(=O)NCC)c(OC)c2)n1)c1cccc(F)c1 (configuration not stated)	> 50%
> 50%	COc1cc(-c2cc(N[C@@H](C)c3ccccc3)ncn2)ccc1O	> 50%
> 50%	CCC[C@H](Nc1cncc(-c2ccc(NC(=O)NCC)c(OC)c2)n1)c1ccccc1	> 50%
> 50%	CCC[C@H](Nc1cc(-c2ccc(NC(=O)NCC)c(OC)c2)ncn1)c1cccnc1	> 50%
> 50%	CCCC(Nc1cncc(-c2ccc(O)c(OC)c2)c1)c1ccccc1 (configuration not stated)	> 50%
> 50%	CCNC(=O)Nc1ccc(-c2ncc(C)c(N[C@@H](CC)c3cccnc3)n2)cc1OC	> 50%
> 50%	CCCC(Nc1cncc(-c2ccc(NC(=O)NCC)c(OC)c2)n1)c1ccccn1 (configuration not stated)	> 50%
> 50%	CCCC(Nc1cncc(-c2ccc(CO)cc2)n1)c1ccccc1 (configuration not stated)	> 50%
> 50%	CCCC(Nc1cncc(-c2ccc(OCCCCN3CCCC3)c(OC)c2)n1)c1ccccc1 (configuration not stated)	> 50%
> 50%	CCNC(=O)Nc1ccc(-c2cncc(N[C@@H](CC)c3cccnc3)n2)cc1OC	> 50%
> 50%	CCCC(Nc1cncc(-c2ccc(CN3CCCC3)cc2)n1)c1ccccc1 (configuration not stated)	> 50%
> 50%	COc1cc(-c2cncc(NC(C)c3ccc(-c4cccnc4)cc3)n2)ccc1O (configuration not stated)	–
> 50%	COc1cc(-c2cncc(NC(C)c3cccc(NC(=O)c4cccnc4)c3)n2)ccc1O (configuration not stated)	–
> 50%	COc1cc(-c2cncc(N[C@@H](C)c3ccccc3)n2)ccc1O	–
